The values below come from patent US20220401662A1, “ACOUSTIC NEBULISER FOR DELIVERY OF ACTIVE AGENTS” (Royal Melbourne Institute of Technology, priority 2020, published 2022).

The data set is described as follows: human clinical trial of lung delivery by inhalation of [99mTc]DTPA aerosol from the nebuliser. It is filed as in vivo. The note with it: for Left lung dose / Right lung dose / Total lung dose: inhalation via described nebuliser, unadjusted. From the text:
Nebulisers in accordance with the described embodiments have been subject to human clinical trials to determine efficiency of delivery of active agents to the lungs by inhalation using Technetium-99m DTPA aerosol ([^99mTc]DTPA aerosol).

Regarding “Technetium-99m DTPA [[^99mTc]DTPA aerosol]”, the Left lung dose reads like this: (Volunteer 1) 7.15 MBq; (Volunteer 2) 25.2 MBq; (Volunteer 3) 22.2 MBq; (Volunteer 4) 23.3 MBq. The Right lung dose was 8.25 MBq (Volunteer 1), 27.1 MBq (Volunteer 2), 21.9 MBq (Volunteer 3) and 26.6 MBq (Volunteer 4). For the same substance, the Total lung dose reads like this: (Volunteer 1) 15.4 MBq; (Volunteer 2) 52.3 MBq; (Volunteer 3) 44.1 MBq; (Volunteer 4) 49.9 MBq. For the setting “human clinical trials, initial results”, the “efficiency of delivery to the lungs by inhalation” value is on record as “effective delivery of nebulised active agent to the target tissue”.
